# In ChEMBL document CHEMBL4840324, “Bioassay-Guided Isolation of an Abetiane-Type Diterpenoid from Prunella vulgaris That Protects against Concanavalin A-Induced Autoimmune Hepatitis” (J Nat Prod, 2021):
# Activity calls are given as the source filed them. No cut-off for these calls is given here.
# Experiments:
# [1] = Immunosuppressive activity in human PBMCs assessed as inhibition of anti-CD3/anti-CD28 induced T-cell proliferation at 0.3125 uM for 72 hrs by CellTrace Violet staining based flow cytometric analysis (reference value: 63.3 %); assay type: functional, PBMC; set-up: scale not given: the % may be the effect or the level left
# [2] = Hepatotoxicity in C57BL/6J mouse at 10 mg/kg, ip administered for 3 days by hematoxylin and eosin staining based immunohistochemical analysis; assay type: toxicity, organism-based; conditions: in vivo, 72 h, time 3 day
# [3] = tested on: Splenocyte; assay: Immunosuppressive activity against anti-CD3/anti-CD28 stimulated C57BL/6J mouse splenocytes assessed as reduction of IL-17 secretion at 0.625 to 2.5 uM; assay type: functional, cell-based; conditions: dose 0.625-2.5 µM
# [4] = tested on: Splenocyte; assay: Inhibition of ConA-stimulated IL-2 production in C57BL/6J mouse splenocytes at 0.156 to 1.25 uM; assay type: functional, cell-based; conditions: dose 0.156-1.25 µM
# [5] = tested on: Splenocyte; assay: Immunosuppressive activity in C57BL/6J mouse splenocytes assessed as inhibition of ConA-induced splenocytes proliferation at 1.25 uM measured after 72 hrs by CellTrace Violet staining based flow cytometric analysis (reference value: 63.9 %); assay type: functional; set-up: scale not given: the % may be the effect or the level left
# [6] = tested on: PBMC; assay: Immunosuppressive activity against anti-CD3/anti-CD28 stimulated human PBMCs assessed as reduction of TNFalpha secretion at 0.625 to 2.5 uM; assay type: functional, tissue-based; conditions: dose 0.625-2.5 µM
# [7] = tested on: Splenocyte; assay: Immunosuppressive activity against anti-CD3/anti-CD28 stimulated C57BL/6J mouse splenocytes assessed as reduction of IL-4 secretion at 0.625 to 2.5 uM; assay type: functional, cell-based; conditions: dose 0.625-2.5 µM
# [8] = Immunosuppressive activity in human PBMCs assessed as inhibition of anti-CD3/anti-CD28 induced T-cell proliferation at 1.25 uM for 72 hrs by CellTrace Violet staining based flow cytometric analysis (reference value: 63.3 %); assay type: functional, PBMC; set-up: scale not given: the % may be the effect or the level left
# [9] = tested on: Mus musculus; assay: Hepatoprotective activity against ConA-induced hepatitis in C57BL/6J mouse assessed as suppression of AST level at 10 mg/kg, ip administered for 3 days by automatic analyzer; assay type: functional, organism-based; conditions: time 3.0 day
# [10] = tested on: Splenocyte; assay: Inhibition of ConA-stimulated IL-6 production in C57BL/6J mouse splenocytes at 0.156 to 1.25 uM; assay type: functional, cell-based; conditions: dose 0.156-1.25 µM
# [11] = tested on: Mus musculus; assay: Hepatoprotective activity against ConA-induced hepatitis in C57BL/6J mouse assessed as suppression of CD3+ T cells infiltration expression at 10 mg/kg, ip administered for 2 days by TUNEL staining based assay; assay type: functional, organism-based; conditions: time 2.0 day
# [12] = tested on: Mus musculus; assay: Hepatoprotective activity against ConA-induced hepatitis in C57BL/6J mouse assessed as effect on cleaved caspase 3 expression at 10 mg/kg, ip administered for 2 days by TUNEL staining based assay; assay type: functional, organism-based; conditions: time 2.0 day
# [13] = tested on: Mus musculus; assay: Hepatoprotective activity against ConA-induced hepatitis in C57BL/6J mouse assessed as effect on FAS expression at 10 mg/kg, ip administered for 2 days by TUNEL staining based assay; assay type: functional, organism-based; conditions: time 2.0 day
# [14] = tested on: Splenocyte; assay: Immunosuppressive activity against anti-CD3/anti-CD28 stimulated C57BL/6J mouse splenocytes assessed as reduction of TNFalpha secretion at 0.625 to 2.5 uM; assay type: functional, cell-based; conditions: dose 0.625-2.5 µM
# [15] = tested on: Splenocyte; assay: Immunosuppressive activity in C57BL/6J mouse splenocytes assessed as inhibition of ConA-induced splenocytes proliferation at 0.625 uM measured after 72 hrs by CellTrace Violet staining based flow cytometric analysis (reference value: 63.9 %); assay type: functional; set-up: scale not given: the % may be the effect or the level left
# [16] = tested on: PBMC; assay: Immunosuppressive activity against anti-CD3/anti-CD28 stimulated human PBMCs assessed as reduction of IFN-gamma secretion at 0.625 to 2.5 uM; assay type: functional, tissue-based; conditions: dose 0.625-2.5 µM
# [17] = tested on: Splenocyte; assay: Inhibition of ConA-stimulated TNFalpha production in C57BL/6J mouse splenocytes at 0.156 to 1.25 uM; assay type: functional, cell-based; conditions: dose 0.156-1.25 µM
# [18] = tested on: Splenocyte; assay: Immunosuppressive activity in C57BL/6J mouse splenocytes assessed as inhibition of anti-CD3/anti-CD28 induced T-cell proliferation at 2.5 uM for 72 hrs by CellTrace Violet staining based flow cytometric analysis (reference value: 78.4 %); assay type: functional; set-up: scale not given: the % may be the effect or the level left
# [19] = tested on: Splenocyte; assay: Immunosuppressive activity in C57BL/6J mouse splenocytes assessed as inhibition of ConA-induced splenocytes proliferation at 0.156 uM measured after 72 hrs by CellTrace Violet staining based flow cytometric analysis (reference value: 63.9 %); assay type: functional; set-up: scale not given: the % may be the effect or the level left
# [20] = tested on: Mus musculus; assay: Hepatoprotective activity against ConA-induced hepatitis in C57BL/6J mouse assessed as suppression of LDH level at 10 mg/kg, ip administered for 3 days by automatic analyzer; assay type: functional, organism-based; conditions: time 3.0 day
# [21] = tested on: Splenocyte; assay: Immunosuppressive activity in C57BL/6J mouse splenocytes assessed as inhibition of anti-CD3/anti-CD28 induced T-cell proliferation at 0.3125 uM for 72 hrs by CellTrace Violet staining based flow cytometric analysis (reference value: 78.4 %); assay type: functional; set-up: scale not given: the % may be the effect or the level left
# [22] = tested on: Splenocyte; assay: Immunosuppressive activity against anti-CD3/anti-CD28 stimulated C57BL/6J mouse splenocytes assessed as reduction of IL-6 secretion at 0.625 to 2.5 uM; assay type: functional, cell-based; conditions: dose 0.625-2.5 µM
# [23] = tested on: Splenocyte; assay: Immunosuppressive activity in C57BL/6J mouse splenocytes assessed as inhibition of anti-CD3/anti-CD28 induced T-cell proliferation at 1.25 uM for 72 hrs by CellTrace Violet staining based flow cytometric analysis (reference value: 78.4 %); assay type: functional; set-up: scale not given: the % may be the effect or the level left
# [24] = tested on: Mus musculus; assay: Hepatoprotective activity against ConA-induced hepatitis in C57BL/6J mouse assessed as suppression of ALT level at 10 mg/kg, ip administered for 3 days by automatic analyzer; assay type: functional, organism-based; conditions: time 3.0 day
# [25] = tested on: Mus musculus; assay: Hepatoprotective activity against ConA-induced hepatitis in C57BL/6J mouse assessed as effect on BCL2 expression at 10 mg/kg, ip administered for 2 days by TUNEL staining based assay; assay type: functional, organism-based; conditions: time 2.0 day
# [26] = tested on: Splenocyte; assay: Immunosuppressive activity in C57BL/6J mouse splenocytes assessed as inhibition of ConA-induced splenocytes proliferation at 0.3125 uM measured after 72 hrs by CellTrace Violet staining based flow cytometric analysis (reference value: 63.9 %); assay type: functional; set-up: scale not given: the % may be the effect or the level left
# [27] = tested on: PBMC; assay: Immunosuppressive activity against anti-CD3/anti-CD28 stimulated human PBMCs assessed as reduction of IL-10 secretion at 0.625 to 2.5 uM; assay type: functional, tissue-based; conditions: dose 0.625-2.5 µM
# [28] = tested on: Splenocyte; assay: Immunosuppressive activity against anti-CD3/anti-CD28 stimulated C57BL/6J mouse splenocytes assessed as reduction of IL-10 secretion at 0.625 to 2.5 uM; assay type: functional, cell-based; conditions: dose 0.625-2.5 µM
# [29] = tested on: PBMC; assay: Immunosuppressive activity against anti-CD3/anti-CD28 stimulated human PBMCs assessed as reduction of IL-6 secretion at 0.625 to 2.5 uM; assay type: functional, tissue-based; conditions: dose 0.625-2.5 µM
# [30] = Immunosuppressive activity in human PBMCs assessed as inhibition of anti-CD3/anti-CD28 induced T-cell proliferation at 2.5 uM for 72 hrs by CellTrace Violet staining based flow cytometric analysis (reference value: 63.3 %); assay type: functional, PBMC; set-up: scale not given: the % may be the effect or the level left
# [31] = tested on: Splenocyte; assay: Inhibition of ConA-stimulated IFNgamma production in C57BL/6J mouse splenocytes at 0.156 to 1.25 uM; assay type: functional, cell-based; conditions: dose 0.156-1.25 µM
# [32] = Immunosuppressive activity in human PBMCs assessed as inhibition of anti-CD3/anti-CD28 induced T-cell proliferation at 0.625 uM for 72 hrs by CellTrace Violet staining based flow cytometric analysis (reference value: 63.3 %); assay type: functional, PBMC; set-up: scale not given: the % may be the effect or the level left
# [33] = tested on: Splenocyte; assay: Immunosuppressive activity in C57BL/6J mouse splenocytes assessed as inhibition of anti-CD3/anti-CD28 induced T-cell proliferation at 0.625 uM for 72 hrs by CellTrace Violet staining based flow cytometric analysis (reference value: 78.4 %); assay type: functional; set-up: scale not given: the % may be the effect or the level left
# [34] = tested on: Splenocyte; assay: Immunosuppressive activity against anti-CD3/anti-CD28 stimulated C57BL/6J mouse splenocytes assessed as reduction of IFN-gamma secretion at 0.625 to 2.5 uM; assay type: functional, cell-based; conditions: dose 0.625-2.5 µM
compound,measurement,setting,value
COC1=C(C(C)C)C(=O)[C@]23O[C@@]2(C1=O)[C@@]1(C)CC[C@H](O)C(C)(C)[C@@H]1CC3=O,Activity,[1],61.3%
same,Activity,[2],Non-Toxic
same,Activity,[3],Active
same,inhibition,[4],Active
same,Activity,[5],10.8%
same,Activity,[6],Active
same,Activity,[7],Active
same,Activity,[8],24.9%
same,Activity,[9],Active
same,inhibition,[10],Active
same,Activity,[11],Active
same,Activity,[12],inactive
same,Activity,[13],inactive
same,Activity,[14],Active
same,Activity,[15],29.9%
same,Activity,[16],Active
same,inhibition,[17],Active
same,Activity,[18],5.48%
same,Activity,[19],51.1%
same,Activity,[20],Active
same,Activity,[21],70.2%
same,Activity,[22],Active
same,Activity,[23],7.39%
same,Activity,[24],Active
same,Activity,[25],inactive
same,Activity,[26],42.2%
same,Activity,[27],Active
same,Activity,[28],Active
same,Activity,[29],Active
same,Activity,[30],8.24%
same,inhibition,[31],Active
same,Activity,[32],56.4%
same,Activity,[33],68.8%
same,Activity,[34],Active
